Article PMC6696208, “Antityrosinase, Antioxidant, and Cytotoxic Activities of Phytochemical Constituents from Manilkara zapota L. Bark” (Molecules, 2019)
Values joined by “and” are separate entries in the source; they are usually repeats but may differ in a detail not shown here. Identical values can stand only once. Like-named read-outs stand apart in the source and are kept apart here. Marks after values point to notes of the source that are not given here.

Legend:
[1] = target: T1, Mushroom tyrosinase (Agaricus bisporus, UniProt C7FF04); test: Kinetic analysis of tyrosinase inhibition, monophenolase activity (Lineweaver-Burk plots); format: biochemical; conditions: L-tyrosine 0-200 μM, samples 20-1000 μM
T1 sequence (G1K3P4 entry or part of it): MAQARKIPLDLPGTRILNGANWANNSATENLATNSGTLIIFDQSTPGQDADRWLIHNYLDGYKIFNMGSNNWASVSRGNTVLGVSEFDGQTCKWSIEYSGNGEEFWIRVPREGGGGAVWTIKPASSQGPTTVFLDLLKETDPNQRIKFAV
T1 sequence (C7FF04 1-392): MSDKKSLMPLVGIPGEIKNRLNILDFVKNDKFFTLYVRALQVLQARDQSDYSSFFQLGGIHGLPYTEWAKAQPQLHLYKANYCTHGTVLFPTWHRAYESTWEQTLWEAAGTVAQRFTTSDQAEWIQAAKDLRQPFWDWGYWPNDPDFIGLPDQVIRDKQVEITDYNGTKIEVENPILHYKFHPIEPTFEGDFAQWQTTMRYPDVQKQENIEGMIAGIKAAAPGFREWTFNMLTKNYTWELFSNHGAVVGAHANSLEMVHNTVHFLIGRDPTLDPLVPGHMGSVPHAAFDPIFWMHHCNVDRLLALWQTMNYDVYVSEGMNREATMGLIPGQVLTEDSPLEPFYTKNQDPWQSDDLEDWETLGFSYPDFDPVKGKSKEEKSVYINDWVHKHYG
Protocol: (§1) The kinetic analysis of tyrosinase inhibitory activity was performed with respect to both monophenolase and diphenolase activities. The concentration ranges of the samples were 20–1000 μM. Both L-tyrosine and L-DOPA were concentrated at 0, 25, 50, 100, and 200 μM, respectively. The inhibitory kinetics of the samples were analyzed using Lineweaver–Burk plots.

[2] = target: T1, Mushroom tyrosinase; test: Kinetic analysis of tyrosinase inhibition, diphenolase activity (Lineweaver-Burk plots); format: biochemical; conditions: L-DOPA 0-200 μM, samples 20-1000 μM
Protocol: as §1

[3] = DPPH radical scavenging assay; conditions: mean ± SD of three replicates
Protocol: The DPPH radical scavenging activity was determined by a modified method based on a previously described procedure. Briefly, a solution containing 50 µL of sample (100 mg/mL) was dissolved in DMSO/ethanol (1:4 v/v) and 150 µL of 0.05 M DPPH solution in methanol. Then, the reaction mixture was mixed and was incubated in the dark for 30 min at 37 °C. The absorbance of the reaction mixture was measured at 517 nm. Trolox was used as a positive control. The DPPH scavenging effect was calculated according to the following equation:(3) DPPH radical scavenging activity (%)=[1−(As−Ab)/Ad]× 100. where As is the absorbance of the sample mixed with DPPH solution, Ab is the absorbance of the sample without DPPH solution, and Ad is the absorbance of DPPH solution without the sample.

[4] = ABTS radical scavenging assay; conditions: mean ± SD of three replicates
Protocol: The ABTS radical scavenging capacity was determined using a modified version of a previously described procedure. The stock solution included 100 mL of 7.0 mM ABTS solution in methanol and 100 mL of 2.4 mM aqueous solution of potassium persulfate. Then, the reaction mixture was left in the dark for 14 h at 37 °C. The solution of 1 mL of ABTS solution was diluted with 60 mL of absolute ethanol to determine an absorbance of 0.700 ± 0.001 units at 734 nm using a spectrophotometer. Next, 500 µL of the sample (100 mg/mL) was reacted with 500 µL of ABTS solution and the absorbance was measured at 734 nm after 7 min of incubation using a spectrophotometer. The results were compared with Trolox as a standard, and the percentage of scavenging activity was calculated according to the following equation:(4) ABTS radical scavenging activity (%)=[(Ac−As)/Ac]×100. where Ac is the absorbance of ABTS radicals with ethanol and As is the absorbance of ABTS radicals with the test sample or positive control.

[5] = FRAP assay (ferric reducing antioxidant power); conditions: FRAP value, expressed as ferrous sulphate equivalent, mean ± SD of three replicates
Protocol: FRAP assay was conducted using a modified version of a method originally reported in an earlier study. The FRAP reagent contained 25 mL of 0.3 M acetate buffer (pH 3.6), 2.5 mL of 20 mM ferric chloride solution, and 2.5 mL of 10 mM 2,4,6-tris(2-pyridyl)-1,3,5-triazine and was brought to a final volume of 50 mL using 40 mM HCl solution. Then, the FRAP reagent was put into a water bath for 30 min at 50 °C. Next, 600 μL of FRAP reagent was added to 25 μL of the sample (100 mg/mL). The absorbance was recorded at 595 nm after 4 min of incubation using a spectrophotometer. Trolox was used as a positive control. The ferric reducing capacity was expressed as a ferrous sulphate equivalent.

[6] = test system: BT474 breast carcinoma cell line; test: MTT cytotoxicity assay, BT474; format: cell-based; conditions: Homo sapiens, BT-474, 72 h
Protocol: (§2) Cytotoxic activity was evaluated in vitro using the microtitration colorimetric method of MTT reduction. In this study, five human carcinoma cell lines were used, including BT474 (ATCC® HTB20^TM), Chago-K1 (National Cancer Institute, Thailand), HepG2 (ATCC® HB8065^TM), KATO-III (ATCC® HTB103^TM), and SW620 (ATCC® CCL227^TM). Additionally, human diploid lung fibroblast (WI-38, ATCC® CCL75^TM) was used as the normal cell line for comparison with the carcinoma cell lines. The culturing of these cell lines was derived in complete medium, including Roswell Park Memorial Institute medium (RPMI-1640), fetal bovine serum (5%, v/v), 25 mM of 4-(2-hydroxyethyl)-1-piperazineethanesulfonic acid (HEPES), sodium bicarbonate (0.25%, w/v), and kanamycin (100 μg/mL). Doxorubicin was used as a positive control. Each well plate contained 198 μL of culture medium of cell lines and was incubated with 5% CO2 atmosphere for 24 h at 37 °C. Then, the culture cells were treated with 2 μL/well of the sample and incubated for 72 h at 37 °C. MTT solution (2 μL, 5 mg/mL in normal saline) was added into each well, and the plates were incubated for an additional 4 h. The supernatant was aspirated out. After that, a mixture of 25 μL of 0.1 M glycine and 150 μL of DMSO was added. The plates were shaken to dissolve the purple-blue crystal of formazan. Then, the absorbance was determined by a microplate reader at 540 nm. The relative cell survival as a percentage of the control (DMSO), which was set at 100%, was calculated using the following formula:(5) The cell survival (%)=[As/Ac] × 100. where As is the absorbance of the test sample and Ac is the absorbance of […].

[7] = test system: Chago-K1 lung bronchus carcinoma cell line; test: MTT cytotoxicity assay, Chago-K1; format: cell-based; conditions: Homo sapiens, ChaGo-K-1, 72 h
Protocol: as §2

[8] = test system: HepG2 liver carcinoma cell line; test: MTT cytotoxicity assay, HepG2; format: cell-based; conditions: Homo sapiens, 72 h
Protocol: as §2

[9] = test system: KATO-III gastric carcinoma cell line; test: MTT cytotoxicity assay, KATO-III; format: cell-based; conditions: Homo sapiens, 72 h
Protocol: as §2

[10] = test system: SW620 colon carcinoma cell line; test: MTT cytotoxicity assay, SW620; format: cell-based; conditions: Homo sapiens, SW-620, 72 h
Protocol: as §2

[11] = test system: WI-38 human diploid lung fibroblast; test: MTT cytotoxicity assay, WI-38 normal cell line; format: cell-based; conditions: 72 h
Protocol: as §2

[12] = target: tyrosinase; parameters: method as in PMID 30364385; conditions: L-DOPA as substrate; read-out: IC50, antityrosinase; cited from earlier work
[13] = parameters: method as in PMID 30364385; conditions: read-out: IC50 for DPPH; cited from earlier work
[14] = parameters: method as in PMID 30364385; conditions: read-out: IC50 for ABTS; cited from earlier work

Structure (SMILES)	Type of inhibition, monophenolase activity [1]	Type of inhibition, diphenolase activity [2]	IC50 [3]	IC50 [4]	FRAP [5]	IC50 [6]	IC50 [7]	IC50 [8]	IC50 [9]	IC50 [10]	IC50 [11]	FRAP ([5]; listed as 6-hydroxyflavanone (3))	FRAP ([5]; listed as (+)-dihydrokaempferol (4))	melting point	IC50 [12]	IC50 [13]	IC50 [14]
O=C(O)c1ccc(O)c(O)c1 [3,4-Dihydroxybenzoic acid (5), 3,4-dihydroxybenzoic acid]	competitive	competitive	4.71 ± 0.1 µM	290.1 ± 0.95 µM	3.00 ± 0.40 ^b μM	85.2 ± 3.96 µM	79.2 ± 4.02 µM	364.7 ± 2.27 µM	507.5 ± 4.61 µM	591.4 ± 0.71 µM	> 649 µM	–	–	–	–	–	–
O=C1CC(c2ccccc2)Oc2ccc(O)cc21 (stereo not drawn) [6-Hydroxyflavanone (3), 6-hydroxyflavanone]	competitive	competitive	3.21 ± 0.7 µM	225.5 ± 0.95 µM	4.12 ± 0.12 ^c μM	86.16 ± 0.45 µM	57.7 ± 1.08 µM	65.8 ± 2.37 µM	88.8 ± 3.7 µM	82.8 ± 1.33 µM	> 416 µM	4.12 ± 0.12 µM	–	–	–	–	–
O=C1c2c(O)cc(O)cc2O[C@H](c2ccc(O)cc2)[C@H]1O [(+)-Dihydrokaempferol (4), (+)-dihydrokaempferol]	competitive	competitive	2.21 ± 0.77 µM	214.8 ± 0.51 µM	6.23 ± 0.10 ^d μM	11.7 ± 0.42 µM	12.3 ± 0.73 µM	13.7 ± 0.38 µM	39.79 ± 0.38 µM	41.1 ± 1.08 µM	> 347 µM	–	6.23 ± 0.10 µM	–	–	–	–
COc1cccc2c1C(=O)c1c(O)c3c(c(O)c1C2=O)C[C@@](O)(C(=O)CO)C[C@@H]3O[C@H]1C[C@H](N)[C@H](O)[C@H](C)O1 [Doxorubicin, reference compound]	–	–	–	–	–	1.21 ± 0.2 µM	1.58 ± 0.4 µM	2.7 ± 0.83 µM	1.78 ± 0.83 µM	1.82 ± 0.39 µM	> 184 µM	–	–	–	–	–	–
C=C(C)[C@@H]1CC[C@]2(C)CC[C@]3(C)C(CCC4[C@@]5(C)CCC(OC(C)=O)C(C)(C)C5CC[C@]43C)C12 (stereo partly drawn) [Lupeol acetate (8), lupeol acetate]	mixed	uncompetitive	87.1 ± 0.31 µM	669.62 ± 0.42 µM	1.28 ± 0.30 ^a μM	60.2 ± 0.9 µM	199.9 ± 0.3 µM	> 213 µM	136.7 ± 0.66 µM	182.7 ± 1.51 µM	> 213 µM	–	–	210 to 212 °C	–	–	–
CC1(C)CC[C@]2(C)CC=C3[C@]4(C)CC[C@H]5C(C)(C)[C@@H](O)CC[C@]5(C)[C@H]4CC[C@@]3(C)[C@@H]2C1 [Taraxerol (6), taraxerol]	noncompetitive	uncompetitive	16.3 ± 0.33 µM	630.84 ± 0.54 µM	1.46 ± 0.11 ^a μM	> 235 µM	> 235 µM	> 235 µM	> 235 µM	> 235 µM	> 235 µM	–	–	–	–	–	–
CO[C@H]1CC[C@@]2(C)C(CC[C@@]3(C)C4=CC[C@]5(C)CCC(C)(C)CC5[C@@]4(C)CCC23)C1(C)C (stereo partly drawn) [Taraxerol methyl ether (1), taraxerol methyl ether]	noncompetitive	noncompetitive	77.31 ± 0.6 µM	520.22 ± 0.3 µM	1.31 ± 0.16 ^a μM	185 ± 1.61 µM	> 227 µM	> 227 µM	> 227 µM	> 227 µM	> 227 µM	–	–	278 to 280 °C	–	–	–
CC1(C)CC[C@]2(C)CC=C3[C@]4(C)CC[C@H]5C(C)(C)C(=O)CC[C@]5(C)[C@H]4CC[C@@]3(C)[C@@H]2C1 [Taraxerone (7), taraxerone]	mixed	mixed	10.2 ± 0.4 µM	334.8 ± 0.99 µM	1.12 ± 0.13 ^a μM	19.2 ± 0.4 µM	26.8 ± 0.97 µM	20.4 ± 1.43 µM	26.5 ± 0.57 µM	> 234 µM	> 234 µM	–	–	–	–	–	–
Cc1c(C)c2c(c(C)c1O)CCC(C)(C(=O)O)O2 (stereo not drawn) [Trolox, reference compound]	–	–	1.92 ± 0.22 µM	188.4 ± 0.43 µM	6.10 ± 0.28 μM and 6.10 ± 0.28 ^d μM	–	–	–	–	–	–	–	–	–	–	–	–
O=C1c2c(O)cc(O)cc2O[C@H](c2cc(O)c(O)c(O)c2)[C@H]1O [dihydromyricetin]	–	–	–	–	–	–	–	–	–	–	–	–	–	–	3.33 µM	12.4 µM	3.41 µM
